Measured values: article PMC9458217, “Synthesis and Biological Evaluation of Cassane Diterpene (5α)-Vuacapane-8(14), 9(11)-Diene and of Some Related Compounds” (Molecules, 2022)
In brackets after ≈: the same amount, converted by molar mass. Several values for one entry are separate records, joined by “and”; a condition that tells them apart may be missing. Identical values can stand only once. Like-named read-outs stand apart in the source and are kept apart here.

How the values were obtained:
[1] = system: RAW 264.7 monocyte/macrophage murine cells; assay: MTT cytotoxicity on RAW 264.7 cells; assay type: cell-based; conditions: Mus musculus
Protocol: MTT is transformed to formazan in cells with metabolism capacity (viable cells), as the number of viable cells is proportional to formazan concentration; this assay was used to determine the cytotoxicity of the compounds.
In all experiments, subconfluent monolayer cells were used.
The effect of compounds on the cell viability was determined by the MTT method (Sigma, St. Louis, MO, USA). The cytotoxicity of the compounds was detected by measuring the absorbance of MTT dye staining of cells with metabolism capacity. […] Finally, after 72 h, 100 μL of MTT solution (0.5 mg/mL) in 50% of PBS and 50% of the medium was added to each well. After 1.5 h of incubation, formazan was re-suspended in 100 μL of DMSO, and each concentration was tested in triplicate.
(§1) Experimental cytotoxicity data were fitted to a sigmoidal function (y = ymax/ (x/a)^−b) by non-linear regression. […] Similar analyses were performed to obtain the IC50 of NO production (IC50 NO). All shown data are representative of at least two independent experiments performed in triplicate. All quantitative data were summarized as the means ± standard deviation (SD).

[2] = system: HT29 colon adenocarcinoma cells; assay: HT29 cell cycle arrest and distribution, flow cytometry with PI; assay type: cell-based, human; conditions: for decrease in S phase cell percentage / increase of G0/G1 phase population with respect to untreated control: 72 h
Excerpt: Flow cytometry was used to measure DNA ploidy and to determine possible alterations in cell cycle profiles. […]. […] […]. Changes in the G2/M phase were less significant. Although changes in the cell cycle were observed, they were of a lower magnitude and insignificant for compound 20. Therefore, those changes could be produced by the apoptotic process activation and not by cytostatic or differentiation process induction. […]. Further assays will be necessary to asseverate this point.
The method was performed by flow cytometry after propidium iodide staining (PI). […]. After that, cells were stored on ice and were stained with 20 µL of 1 mg/mL PI solution just before measurement. Approximately 10 × 10^3 cells were analysed in each experiment. The experiments were performed three times with two replicates per assay. Finally, the samples were analysed using a flow cytometer and the number of cells in each stage of the cell cycle was estimated by fluorescence-associated cell sorting (FACS) at 488 nm in an Epics XL flow cytometer (Coulter Corporation, Hialeah, FL, USA).

[3] = system: LPS-induced J774.A1 macrophage cells; design: method as in PMID 34990974; conditions: 50 μM, natural compounds; cited from earlier work
[4] = system: HT29 human colorectal adenocarcinoma cell line; assay: MTT cytotoxicity on HT29 cells; conditions: HT-29, 72 h
Protocol: (§2) These studies were performed using the MTT assay, based on formazan dye formation and expressed as a percentage with respect to untreated control cells (100% of cell metabolism).
(§3) The effect of compounds on the cell viability was determined by the MTT method [27] (Sigma, St. Louis, MO, USA). The cytotoxicity of the compounds was detected by measuring the absorbance of MTT dye staining of cells with metabolism capacity. […] Finally, after 72 h, 100 μL of MTT solution (0.5 mg/mL) in 50% of PBS and 50% of the medium was added to each well. After 1.5 h of incubation, formazan was re-suspended in 100 μL of DMSO, and each concentration was tested in triplicate.
(§4) Experimental cytotoxicity data were fitted to a sigmoidal function (y = ymax/ (x/a)^−b) by non-linear regression. […] All shown data are representative of at least two independent experiments performed in triplicate. All quantitative data were summarized as the means ± standard deviation (SD).

[5] = system: colon adenocarcinoma HT29 cells; assay: Mitochondrial membrane potential, Rh123/PI flow cytometry in HT29 cells; assay type: cell-based, human; conditions: HT29, IC50 and IC80 concentrations, 72 h
Excerpt: The apoptotic effects of anticancer agents can occur through the activation of two major apoptotic pathways: intrinsic and extrinsic apoptotic pathways, Thus, the study of the loss of the mitochondrial membrane potential (MMP) of tumor cells can provide information on the activation mechanism and the apoptotic pathway induced in response to anticancer compounds. When the mitochondria undergo disruption and are involved in the loss of MMP, the activation is then intrinsic (mitochondrial).
The electrochemical gradient across the mitochondrial membrane was studied by analytical flow cytometry using dihydrorhodamine (DHR). […] The medium renewal was achieved by adding fresh medium with DHR to a final concentration of […]. […] The fluorescence intensity was measured using a FACScan flow cytometer (fluorescence-activated cell sorter). The experiments were performed three times with two replicates per assay.

HT29 cells = assay: Annexin V-FITC/PI flow cytometry (apoptosis) in HT29 cells; assay type: cell-based, human; conditions: 72 h
Protocol: Most currently used anticancer drugs trigger the apoptosis process as a key target and induce it in cancer cells. Phosphatidylserine (PS) externalization is a typical characteristic of early phase apoptosis. […].
As such wise, apoptosis was assessed by flow cytometry using a FACScan (fluorescence-activated cell sorter) flow cytometer (Coulter Corporation, Hialeah, FL, USA). For this assay, 5 × 10^4 HT29 cells were plated in 24-well plates with 1.5 mL of medium and incubated for 24 h. […] The cells were collected and resuspended in a binding buffer (10 mM HEPES/NaOH, pH 7.4, 140 mM NaCl, 2.5 mM CaCl2). At room temperature in darkness, Annexin V-FITC conjugate (1 μg/mL) was then added and incubated for 15 min. Cells were stained with 5 μL of 1 mg/mL PI solution, just before the analysis. In each experiment, approximately 10 × 10^3 cells were analyzed, and the experiment was duplicated twice.

[6] = system: LPS-stimulated RAW 264.7 murine macrophage cells; assay: Inhibition of NO production (nitrite, Griess reaction) in LPS-stimulated RAW 264.7 cells; assay type: cell-based; conditions: LPS-activated RAW 264.7, 72 h of incubation
Protocol: The activation of the inflammatory process induces nitric oxide, NO, released as a second messenger. NO production can be used as the main indicator to assess inflammatory activity, which can be measured using nitrite (NO^2–) quantification (proportional to the released NO), determined through the Griess reaction. […] Inhibition percentages were calculated with respect to the increase between positive control (only LPS treated control cells) and negative control (untreated control cells).
The absorbance was referred to nitrite standard curve to determine the concentration of nitrite in the supernatant of each experimental sample. The percentage of NO production was determined, assigning 100% at the increase between negative control (untreated cells) and positive control (cells only treated with 10 μg/mL of LPS).
as §1

[7] = system: HepG2 human hepatocarcinome cell-line; assay: MTT cytotoxicity on HepG2 cells; conditions: HepG2, 72 h
Protocol: as §2, §3, §4

[8] = system: RAW 264.7 cells, activated by LPS; assay: Cell cycle distribution of LPS-activated RAW 264.7 cells, flow cytometry with PI; assay type: cell-based, murine
Protocol: The cell-cycle distribution was analyzed by flow cytometry with propidium iodide (IP) staining (Figure 3). Significant growth arrest of the cell cycle in LPS-induced RAW 264.7 cells produced 100% detention in the G0/G1 phase (positive control) compared to the negative control (49.6%). After incubation with compound 20, the percentage of cells found in the G0/G1 phase was 29%, 32%, and 36%, respectively, at the assayed concentrations. Similar results were found for compound 16 (35%, 38%, and 39%) after 72 h of incubation at the same concentrations. This decrease was accompanied by the consequent increase in the number of cells in the S phase: 70%, 68%, and 56%, respectively, for compound 20, and 63%, 61%, and 59% for compound 16. […] This recovery of the cell cycle with respect to control cells (only LPS treated) could be a consequence of the anti-inflammatory effect produced by the tested compounds, which increase cell division, rescuing RAW 264.7 cells from LPS-induced arrest during their monocyte/macrophage differentiation process.
DNA content is directly proportional to the PI fluorescence; it allows us to determine the percentage of cells in each cell cycle phase. Using a fluorescence-activated cell sorter (FACS) at 488 nm in an Epics XL flow cytometer (Coulter Corporation, Hialeah, FL, USA), cell subpopulations could be visualized with different DNA contents. […] By treating cells only with LPS, the positive control was performed. However, the negative control was prepared, exposing cells […]. After treatment, cells were washed twice with PBS and trypsine solution, then resuspended in TBS 1X (10 Mm Tris, 150 Mm NaCl) and then Vindelov buffer (100 mM Tris, 100 Mm NaCl, 10 mg/mL Rnasa, 1 mg/mL PI, pH 8) was added. The samples were placed for 15 min on ice. Immediately before FACS analysis, cells were stained with 20 μL of 1 mg/mL PI solution. Data were analyzed to determine the percentage of cells in each cell cycle phase (G0/G1, S, and G2/M).

Staphylococcus aureus = system: Staphylococcus aureus; design: method as in PMID 17418286; conditions: cited from earlier work
Micrococcus flavus = system: Micrococcus flavus; design: method as in PMID 17418286; conditions: cited from earlier work
NO = system: NO; design: method as in PMID 34990974; conditions: read-out: NO inhibition IC50; cited from earlier work

Cc1c2c(cc3c1CCC1C(C)(C)CCCC31C)OC(O)C2 (centres unmarked) [Compound 6, pterolobirin G]
IC20 ([1]; RAW264.7, 72 h): 12.7 ± 0.3 µg/mL (≈ 42.2 µM) | IC50 ([1]; RAW264.7, 72 h): 15 ± 0.32 µg/mL (≈ 49.9 µM) | IC80 ([1]; RAW264.7, 72 h): 18.6 ± 0.45 µg/mL (≈ 61.8 µM) | decrease in S phase cell percentage ([2]; HT29, IC50 concentration): 17.3% | increase of G0/G1 phase population with respect to untreated control ([2]; HT29, IC50 concentration): 13.6% | decrease in S phase cell percentage ([2]; HT29, IC80 concentration): 30.36% | increase of G0/G1 phase population with respect to untreated control ([2]; HT29, IC80 concentration): 29% | inhibition of NO production [3]: did not show any significant inhibition of NO production | IC50 [4]: ~3 µg/mL (≈ 9.99 µM) | changes in mitochondrial membrane potential (MMP), Rh123 staining [5]: did not produce any changes in MMP | total apoptosis (early plus late apoptotic cells) (HT29 cells; HT29, IC50 concentration): 18.30% | early apoptosis (HT29 cells; HT29, IC80 concentration): 48.83% | late apoptosis (HT29 cells; HT29, IC80 concentration): 23% | total apoptosis (early plus late apoptotic cells) (HT29 cells; HT29, IC80 concentration): 80%

Cc1c(C=O)c(O)cc2c1CC[C@H]1C(C)(C)CCC[C@]21C [Compound 20]
IC50 NO [6]: 2.98 ± 0.04 µg/mL (≈ 10.4 µM) | IC50 ([6]; Mus musculus, RAW264.7, 72 h): 5.71 ± 0.14 µg/mL (≈ 19.9 µM) | IC20 ([1]; RAW264.7, RAW 264.7, MTT, 72 h of incubation, 20% cell viability inhibition, read-out: IC20): 7.86 ± 3.97 µg/mL (≈ 27.4 µM) | IC80 ([1]; RAW264.7, RAW 264.7, MTT, 72 h of incubation, 80% cell viability inhibition, read-out: IC80): 9.35 ± 0.95 µg/mL (≈ 32.6 µM) | IC50 ([1]; RAW264.7, RAW 264.7, MTT, 72 h of incubation, read-out: IC50): 8.34 ± 2.51 µg/mL (≈ 29.1 µM) | cell cycle arrest at the G0/G1 phase (cell percentage) ([2]; HT29, IC50 concentration): 63.6% | decrease in S phase cell percentage ([2]; HT29, IC50 concentration): 6% | increase of G0/G1 phase population with respect to untreated control ([2]; HT29, IC50 concentration): 6% | cell cycle arrest at the G0/G1 phase (cell percentage) ([2]; HT29, IC80 concentration): 66.6% | decrease in S phase cell percentage ([2]; HT29, IC80 concentration): 10.7% | increase of G0/G1 phase population with respect to untreated control ([2]; HT29, IC80 concentration): 9% | IC50 ([4]; HT29, MTT, 72 h): ~3 µg/mL (≈ 10.5 µM) | changes in mitochondrial membrane potential (MMP), Rh123 staining [5]: did not produce any changes in MMP | IC50 [7]: 8.41 ± 0.3 µg/mL (≈ 29.4 µM) | cells in the S phase ([8]; ¼ IC50, 72 h): 70% | percentage of cells in the G0/G1 phase ([8]; ¼ IC50, 72 h, LPS control 100%, negative control 49.6%): 29% | changes in the G2/M phase ([8]; ¼, ½ and ¾ IC50, 72 h): not significant | cells in the S phase ([8]; ½ IC50, 72 h): 68% | percentage of cells in the G0/G1 phase ([8]; ½ IC50, 72 h): 32% | cells in the S phase ([8]; ¾ IC50, 72 h): 56% | percentage of cells in the G0/G1 phase ([8]; ¾ IC50, 72 h): 36% | early apoptosis (HT29 cells; HT29, IC50 concentration): 27.57% | late apoptosis (HT29 cells; HT29, IC50 concentration): 49.97% | total apoptosis (early plus late apoptotic cells) (HT29 cells; HT29, IC50 concentration): 76.25% | early apoptosis (HT29 cells; HT29, IC80 concentration): 41.40% | late apoptosis (HT29 cells; HT29, IC80 concentration): 45.40% | total apoptosis (early plus late apoptotic cells) (HT29 cells; HT29, IC80 concentration): 80% and 86.8%

COC(=O)[C@@]1(C)CCC[C@]2(C)c3cc4occc4c(C)c3CC[C@@H]12 [benthaminin 1]
MIC (Staphylococcus aureus): 47.8 µM (≈ 15.6 µg/mL) | MIC (Micrococcus flavus): 47.8 µM (≈ 15.6 µg/mL)

CC(=O)O[C@H]1Cc2c(cc3occc3c2C)[C@@]2(C)CCCC(C)(C)[C@H]12 [sucutinirane C]
IC50 (NO): 24.4 ± 1.34 µM
